According to paper PMC4773034 (Journal of biomolecular screening, 2012):

Molecular target: EndA(H160G) (Streptococcus pneumoniae serotype 4, UniProt P0A3S3, H160G)
Test: PicoGreen nuclease assay
Type: biochemical
Conditions: 25 mM imidazole, 30 min reaction, top concentration 30 µM

Structure (SMILES)	IC50 (stated in words)
NC(Cc1cc(O)c(O)cc1O)C(=O)O (racemic) [6-hydroxy-DL-DOPA]	nanomolar range
CC(C)c1ccc2c(c1)c(SC(C)(C)C)c(CC(C)(C)C(=O)[O-])n2Cc1ccc(Cl)cc1.[Na+] [MK-886]	nanomolar range
O=c1c(O)c(-c2cc(O)c(O)c(O)c2)oc2cc(O)cc(O)c12 [Myricetin]	nanomolar range
